Assay results as given in PubChem BioAssay (NCI).
Where “and” joins values, the source holds several entries; their conditions need not be identical. Equal values may be shown once.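 Where inhibition never reached the appropriate level, the endpoint shown equals the highest concentration tested. Otherwise, values were interpolated linearly from a five-concentration, 48-hour dose response in 96-well plates. GI50 marks 50% less growth. TGI denotes the concentration required for complete inhibition of growth.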

How the values were obtained:
Test in all cases: DTP human tumour cell line panel, 48 h
MALME-3M melanoma = tested on: MALME-3M melanoma
OVCAR-3 ovarian = tested on: OVCAR-3 ovarian
HCT-15 colon = tested on: HCT-15 colon
786-0 renal = tested on: 786-0 renal
BT-549 breast = tested on: BT-549 breast
EKVX NSCLC = tested on: EKVX NSCLC
TK-10 renal = tested on: TK-10 renal
COLO 205 colon = tested on: COLO 205 colon
CAKI-1 renal = tested on: CAKI-1 renal
HOP-62 NSCLC = tested on: HOP-62 NSCLC
A498 renal = tested on: A498 renal
SW-620 colon = tested on: SW-620 colon
U251 CNS = tested on: U251 CNS
SK-MEL-5 melanoma = tested on: SK-MEL-5 melanoma
KM12 colon = tested on: KM12 colon
SNB-75 CNS = tested on: SNB-75 CNS
HT29 colon = tested on: HT29 colon
RXF 393 renal = tested on: RXF 393 renal
HCT-116 colon = tested on: HCT-116 colon
NCI-H23 lung = tested on: NCI-H23 lung
OVCAR-8 ovarian = tested on: OVCAR-8 ovarian
HOP-92 NSCLC = tested on: HOP-92 NSCLC
NCI/ADR-RES ovarian = tested on: NCI/ADR-RES ovarian
SK-MEL-28 melanoma = tested on: SK-MEL-28 melanoma
OVCAR-4 ovarian = tested on: OVCAR-4 ovarian
SF-295 CNS = tested on: SF-295 CNS
UACC-257 melanoma = tested on: UACC-257 melanoma
SF-539 CNS = tested on: SF-539 CNS
MOLT-4 leukemia = tested on: MOLT-4 leukemia
RPMI-8226 leukemia = tested on: RPMI-8226 leukemia
NCI-H522 lung = tested on: NCI-H522 lung
NCI-H226 lung = tested on: NCI-H226 lung
LOX IMVI melanoma = tested on: LOX IMVI melanoma
T-47D breast = tested on: T-47D breast
MDA-MB-231 breast = tested on: MDA-MB-231 breast
OVCAR-5 ovarian = tested on: OVCAR-5 ovarian
SF-268 CNS = tested on: SF-268 CNS
SK-OV-3 ovarian = tested on: SK-OV-3 ovarian
MDA-MB-435 = tested on: MDA-MB-435
ACHN renal = tested on: ACHN renal
SN12C renal = tested on: SN12C renal
SK-MEL-2 melanoma = tested on: SK-MEL-2 melanoma
SR leukemia = tested on: SR leukemia
CCRF-CEM leukemia = tested on: CCRF-CEM leukemia
SNB-19 CNS = tested on: SNB-19 CNS
HCC-2998 colon = tested on: HCC-2998 colon
HS 578T breast = tested on: HS 578T breast
IGROV1 ovarian = tested on: IGROV1 ovarian
K-562 leukemia = tested on: K-562 leukemia
PC-3 prostate = tested on: PC-3 prostate
UO-31 renal = tested on: UO-31 renal
MCF7 breast = tested on: MCF7 breast
NCI-H460 lung = tested on: NCI-H460 lung
M14 melanoma = tested on: M14 melanoma
HL-60(TB) leukemia = tested on: HL-60(TB) leukemia
UACC-62 melanoma = tested on: UACC-62 melanoma
A549 NSCLC = tested on: A549 NSCLC

Cc1cc2nc3c(C#N)c(-c4ccccc4)cc(Nc4ccc(F)cc4)n3c2cc1C
TGI (MALME-3M melanoma): 70000 nM
TGI (OVCAR-3 ovarian): 46400 nM
TGI (HCT-15 colon): > 100000 nM
TGI (786-0 renal): 22500 nM
TGI (BT-549 breast): 56300 nM
TGI (EKVX NSCLC): 52900 nM
TGI (TK-10 renal): 39300 nM
TGI (COLO 205 colon): > 100000 nM
TGI (CAKI-1 renal): > 100000 nM
TGI (HOP-62 NSCLC): 36600 nM
TGI (A498 renal): 93500 nM
TGI (SW-620 colon): > 100000 nM
TGI (U251 CNS): 16300 nM
TGI (SK-MEL-5 melanoma): > 100000 nM
TGI (KM12 colon): > 100000 nM
TGI (SNB-75 CNS): 57500 nM
TGI (HT29 colon): > 100000 nM
TGI (RXF 393 renal): 61300 nM
TGI (HCT-116 colon): > 100000 nM
TGI (NCI-H23 lung): 47200 nM
TGI (OVCAR-8 ovarian): 25500 nM
TGI (HOP-92 NSCLC): 36500 nM
TGI (NCI/ADR-RES ovarian): 71600 nM
TGI (SK-MEL-28 melanoma): > 100000 nM
TGI (OVCAR-4 ovarian): > 100000 nM
TGI (SF-295 CNS): 76200 nM
TGI (UACC-257 melanoma): > 100000 nM
TGI (SF-539 CNS): 34800 nM
TGI (MOLT-4 leukemia): > 100000 nM
TGI (RPMI-8226 leukemia): > 100000 nM
TGI (NCI-H522 lung): 30700 nM
TGI (NCI-H226 lung): 73700 nM
TGI (LOX IMVI melanoma): 29000 nM
TGI (T-47D breast): > 100000 nM
TGI (MDA-MB-231 breast): 51100 nM
TGI (OVCAR-5 ovarian): 45200 nM
TGI (SF-268 CNS): 27900 nM
TGI (SK-OV-3 ovarian): 69900 nM
TGI (MDA-MB-435): > 100000 nM
TGI (ACHN renal): > 100000 nM
TGI (SN12C renal): 53700 nM

COC(=O)[C@@H](C)C[C@H](Cc1ccccc1)NC(=O)c1csc([C@@H](C[C@H](C(C)C)N(C)C(=O)[C@@H](NC(=O)[C@H]2CCCCN2C)C(C)C)OC(C)=O)n1
GI50 (SK-MEL-2 melanoma): 0.256 nM
GI50 (MALME-3M melanoma): 8670 nM
TGI (MALME-3M melanoma): > 25000 nM
TGI (SR leukemia): > 25000 nM
GI50 (OVCAR-3 ovarian): < 0.1 nM
GI50 (HCT-15 colon): 0.31 nM and 2.5 nM
TGI (HCT-15 colon): > 25000 nM
GI50 (786-0 renal): 0.331 nM and 2.5 nM
TGI (786-0 renal): 24500 nM
GI50 (BT-549 breast): 0.284 nM and < 2.5 nM
TGI (BT-549 breast): 18.3 nM and < 2.5 nM
GI50 (CCRF-CEM leukemia): 0.425 nM and 2.5 nM
TGI (CCRF-CEM leukemia): > 25000 nM
GI50 (EKVX NSCLC): 0.617 nM and 3.56 nM
TGI (EKVX NSCLC): > 25000 nM
GI50 (TK-10 renal): 22.3 nM and 2.5 nM
TGI (TK-10 renal): > 25000 nM
GI50 (COLO 205 colon): < 2.5 nM
TGI (COLO 205 colon): < 2.5 nM
GI50 (HOP-62 NSCLC): 0.396 nM and 2.5 nM
TGI (HOP-62 NSCLC): > 25000 nM
TGI (SNB-19 CNS): > 25000 nM
GI50 (A498 renal): 0.176 nM and < 2.5 nM
TGI (A498 renal): 0.694 nM and < 2.5 nM
GI50 (HCC-2998 colon): 0.356 nM and 2.5 nM
TGI (HCC-2998 colon): > 25000 nM
GI50 (HS 578T breast): 0.641 nM
TGI (SW-620 colon): > 25000 nM
GI50 (U251 CNS): 0.396 nM and 2.5 nM
TGI (U251 CNS): > 25000 nM
GI50 (SK-MEL-5 melanoma): < 0.1 nM
TGI (SK-MEL-5 melanoma): 3.01 nM and < 2.5 nM
TGI (KM12 colon): > 25000 nM
TGI (SNB-75 CNS): > 25000 nM
GI50 (IGROV1 ovarian): 0.308 nM and 2.5 nM
TGI (IGROV1 ovarian): > 25000 nM
TGI (HT29 colon): > 25000 nM
TGI (K-562 leukemia): > 25000 nM
GI50 (RXF 393 renal): 2.5 nM
TGI (RXF 393 renal): > 25000 nM
TGI (PC-3 prostate): > 25000 nM
TGI (HCT-116 colon): > 25000 nM
GI50 (NCI-H23 lung): 0.395 nM and 2.5 nM
TGI (NCI-H23 lung): > 25000 nM
GI50 (OVCAR-8 ovarian): 0.519 nM and 2.5 nM
TGI (OVCAR-8 ovarian): > 25000 nM
GI50 (HOP-92 NSCLC): 0.692 nM and < 2.5 nM
GI50 (NCI/ADR-RES ovarian): 3.83 nM and 2.5 nM
TGI (NCI/ADR-RES ovarian): > 25000 nM
GI50 (SK-MEL-28 melanoma): 2.5 nM
TGI (SK-MEL-28 melanoma): > 25000 nM
TGI (OVCAR-4 ovarian): > 25000 nM
GI50 (UO-31 renal): 0.932 nM and 2.5 nM
TGI (UO-31 renal): > 25000 nM
TGI (SF-295 CNS): 13100 nM
GI50 (SF-539 CNS): 0.294 nM and < 2.5 nM
TGI (SF-539 CNS): 2.09 nM and < 2.5 nM
GI50 (MOLT-4 leukemia): 0.5 nM and 2.5 nM
TGI (MOLT-4 leukemia): > 25000 nM
TGI (RPMI-8226 leukemia): 7540 nM
TGI (MCF7 breast): > 25000 nM
TGI (NCI-H460 lung): > 25000 nM
GI50 (M14 melanoma): 0.134 nM
TGI (M14 melanoma): 0.531 nM
GI50 (NCI-H522 lung): 0.178 nM
TGI (NCI-H522 lung): 0.897 nM
GI50 (NCI-H226 lung): 2.5 nM
TGI (NCI-H226 lung): > 25000 nM
GI50 (LOX IMVI melanoma): 0.695 nM and 2.5 nM
TGI (LOX IMVI melanoma): > 25000 nM
GI50 (T-47D breast): > 25000 nM
TGI (T-47D breast): > 25000 nM
GI50 (MDA-MB-231 breast): 0.506 nM and 2.5 nM
TGI (MDA-MB-231 breast): 11.6 nM
GI50 (OVCAR-5 ovarian): 0.369 nM and 2.5 nM
TGI (OVCAR-5 ovarian): > 25000 nM
GI50 (HL-60(TB) leukemia): 0.187 nM and < 2.5 nM
TGI (HL-60(TB) leukemia): 0.627 nM and < 2.5 nM
GI50 (SF-268 CNS): 0.671 nM and 2.5 nM
TGI (SF-268 CNS): > 25000 nM
TGI (UACC-62 melanoma): > 25000 nM
TGI (SK-OV-3 ovarian): > 25000 nM
GI50 (MDA-MB-435): < 0.1 nM
TGI (MDA-MB-435): 0.135 nM and < 2.5 nM
GI50 (ACHN renal): 0.417 nM and 2.5 nM
TGI (ACHN renal): > 25000 nM
GI50 (SN12C renal): 0.567 nM and 2.5 nM
TGI (SN12C renal): > 25000 nM
GI50 (A549 NSCLC): 0.457 nM and 2.5 nM
TGI (A549 NSCLC): > 25000 nM
